Assay results reported in patent US20260085340A1, “METHOD FOR SINGLE CELL ANTIMICROBIAL SUSCEPTIBILITY TESTING IN A SUB-DOUBLING TIME” (The Penn State Research Foundation, priority 2022, published 2026).
Values after ≈ are worked out from the molar mass of the structure shown. “Also recorded” adds a separate entry of the source. Like-named read-outs stand apart in the source and are kept apart here.

Columns and labels:
[1] = system: clinical samples of KP (VA_1 and VA_2); test: Experimental MIC of clinical samples of KP from patients with urinary tract infections; format: cell-based, Klebsiella pneumoniae
Protocol: (§1) In addition to validation against unseen strains, the model was tested against imaging data from two clinical samples of KP obtained from patients visiting the VA (Palo Alto) with urinary tract infections (FIG. 9D-E). The experimental MICs for these clinical samples (VA_1 and VA_2) was 0.5 μg/mL, i.e., susceptible. […] When the incubation time was increased to 50 minutes, both strains were predicted to have a mode MIC of 1 μg/mL which accurately classifies both clinical isolates as susceptible with an MIC within one-two fold dilution from the experimental MIC resulting.

[2] = system: Klebsiella pneumoniae isolates; settings: cited from earlier work
Klebsiella pneumoniae = test: Time-lapse single cell imaging of K. pneumoniae treated with meropenem (cell division, morphology); format: cell-based; settings: for bulging or protrusion around the center of the cell: 5 μg/mL meropenem, early time points
Protocol: Klebsiella pneumoniae isolates (listed in Table 1 below) from the CDC & FDA Antimicrobial Resistance (AR) bank and American Type Culture Collective (ATCC) were grown in Mueller Hinton Broth (MHB) at 37° C. overnight. The next day, cells were sub-cultured in fresh MHB media for three hours (growth phase) to a density equivalent to OD600=0.5. Bacteria cells (10 μL) were treated with 10 μL meropenem at varying final concentrations of 0, 0.05, 0.5, 5, and 50 μg/mL to ascertain the physiological responses of cells. A subset of these isolates was treated with finer range of antimicrobial concentrations (0.02, 0.04, 0.016, 0.032, 0.064, 0.125, 0.5, 1, 2 μg/mL) to train the algorithm for quantitative prediction of MIC. The MICs of the isolates were obtained from the CDC and independently confirmed using the broth microdilution method according to the CDC guideline.
Bacteria cells and meropenem in liquid media are briefly vortexed prior to mounting on 1% (v/v) UltraPure agarose pad (10×20 mm, Invitrogen) on a microslide covered with a glass coverslip (#1.5, 22×30 mm). Bacteria imaging was performed using a Nikon Ti2-E inverted microscope equipped with a DS-Qi2 CMOS camera and an Okolab stage-top temperature control chamber (37° C., 5% CO2). Images were acquired using a Nikon CFI Plan Apochromat 1 DM 100× oil objective lens and an external Phase Contrast (Ph3) module. Each isolate was observed over a period of 75 minutes (15-90 minutes after mixing with the antimicrobial).
Time-series images were stacked and corrected for shifts in the time series using the Template Matching and Slice Alignment ImageJ plugin. Each individual stack was then analyzed using the MicrobeJ plugin for ImageJ. The plugin, designed for the detection and analysis of bacterial cells, uses computer vision algorithms to automatically identify a cell and determine a suite of morphological features, such as its area, length, circularity, and perimeter (see Table 2 below). The tracking data were summarized as a table and exported as a comma-separated values (.csv) file for further analysis.
(§2) We developed a non-limiting example machine learning workflow for rapid AST in a sub-doubling time of the bacteria. The MorphoAST workflow started with imaging of individual bacteria under various antimicrobial concentrations (FIG. 1A). Cells were grown to log phase and treated with varying concentrations of meropenem. Cells without any antimicrobials were imaged in the same manner as controls for the experiment. Live bacteria were mounted on an agarose pad to minimize cell movement due to cell motility and Brownian motion. Time-lapse images were taken every 5 minutes. Images were aligned to match the location of individual cells at each frame and then subject to MicrobeJ analysis for extracting morphological features. A total of 21 parameters (Table 2) describing the cellular dimension and orientation were generated. The data were analyzed either fitting with an exponential function to extract the feature changing rates (FIG. 1B) or normalized against the untreated control to extract the feature differentials (FIG. 1C). The data were applied to train and validate machine learning classifiers to predict the antimicrobial response (FIG. 1D) and regressors to predict the MIC of the bacterial strain against the antimicrobial (FIG. 1E).

[3] = system: clinical samples of KP (VA_1 and VA_2); test: MorphoAST MIC prediction with Random Forest regressor (concentration differential) from single cell imaging; format: cell-based, Klebsiella pneumoniae; settings: for MIC: Klebsiella pneumoniae
Protocol: as §2
We further evaluated the use of the concentration differential data for MIC prediction. A Random Forest regressor was trained from a total of 39,135 cells across the concentrations. […] The Random Forest regressor predicted the MIC in the 5-fold cross-validated training dataset with an RMSE of 0.8, MAE of 0.2, and an R^2 of 0.93. The performance of the model was assessed against 5 unseen KP strains, which comprised 6,067 cells. The experimental MIC and predicted MIC of the 5 unseen strains based on the Random Forest regressor are compared in FIG. 9B. […] The predicted and experimentally reported MIC labels were also compared. Based on the predicted MIC for each strain, the model correctly predicted 100% (2/2) of the susceptible and intermediate (1/1) bacteria in as few as 30 minutes. The performance of the model increased with the antimicrobial exposure time and achieved 100% CA with 0% ME and 0% VME in 50 minutes. We then tested the model performance in predicting the MIC for individual cells within each population of the unseen strains tested (FIG. 9C). While there is heterogeneity in calls for individual cells from a single population, ˜79.9% of cells from 3/5 strains tested (KP 003, KP_139, and KP_U3) had predicted MICs within one-two fold dilution from the experimental MIC after 20 minutes of antimicrobial exposure. After 50 minutes of exposure, ˜85.1% of all cells from 5/5 tested strains had predicted MICs within one-two fold dilution from experimental MIC.
as §1

For C[C@@H](O)[C@H]1C(=O)N2C(C(=O)O)=C(S[C@@H]3CN[C@H](C(=O)N(C)C)C3)[C@H](C)[C@H]12 [Meropenem, meropenem], the MIC ([1]; Klebsiella pneumoniae, clinical sample VA_1) was 0.5 µg/mL, the “susceptibility category from experimental MIC” value ([1]; clinical sample VA_1) was “susceptible” and the “experimental MIC” value ([1]; clinical sample VA_2) was 0.5 µg/mL. The “susceptibility category from experimental MIC” value ([1]; clinical sample VA_2) was “susceptible”, the “MIC of the strain” value ([2]; K. pneumoniae KP0142) was 2 µg/mL and the Meropenem MIC ([2]; KP strain AR Bank# 0010) was 1 µg/mL. For the same compound, the Meropenem MIC ([2]; KP strain AR Bank# 0016) was < 0.5 µg/mL, the “Meropenem Susc.” value ([2]; KP strain AR Bank# 0016) was “Susceptible” and the Meropenem MIC ([2]; KP strain AR Bank# 0028) was < 0.5 µg/mL. For the same compound, the Meropenem MIC ([2]; KP strain AR Bank# 0120) was > 8 µg/mL, the Meropenem MIC ([2]; KP strain AR Bank# 0140) was 2 µg/mL and the Meropenem MIC ([2]; KP strain AR Bank# 0142) was 2 µg/mL. The “Meropenem Susc.” value ([2]; KP strain AR Bank# 0142) was “Intermediate”, the Meropenem MIC ([2]; KP strain AR Bank# 0143) was > 8 µg/mL and the “Meropenem Susc.” value ([2]; KP strain AR Bank# 0143) was “Resistant”. The Meropenem MIC ([2]; KP strain AR Bank# 0147) was 0.5 µg/mL, the Meropenem MIC ([2]; KP strain AR Bank# 0153) was > 8 µg/mL and the Meropenem MIC ([2]; KP strain AR Bank# 0160) was > 8 µg/mL. The Meropenem MIC ([2]; KP strain ATCC 700603) was ≤ 0.25 µg/mL, the Meropenem MIC ([2]; KP strain ATCC BAA-1705) was > 8 µg/mL and the “Bulging of the cells” value (Klebsiella pneumoniae; K. pneumoniae KP0142, 50 μg/ml meropenem versus 0 μg/ml) was “observed only in the meropenem case; also recorded: only observed in the meropenem case”. For the same compound, the cell division (Klebsiella pneumoniae; K. pneumoniae KP0142, 50 μg/ml meropenem, time-lapse imaging) was “completely inhibited”, the “bulging or protrusion around the center of the cell” value (Klebsiella pneumoniae; KP0016 (susceptible)) was “noticeable ‘bulging’ or protrusion around the center of the cell” and the “bulging or protrusion around the center of the cell” value (Klebsiella pneumoniae; KP0142 (intermediate)) was “noticeable ‘bulging’ or protrusion around the center of the cell”. For the same compound, the “bulging or protrusion around the center of the cell” value (Klebsiella pneumoniae; KP0143 (resistant)) was “not observed”, the MIC ([3]; 20 min, clinical sample VA_1, within 20 minutes of meropenem treatment, read-out: predicted MIC) was 8 µg/mL (≈ 20.9 µM) and the MIC ([3]; 20 min, clinical sample VA_2, within 20 minutes of meropenem treatment, read-out: predicted MIC) was 7 µg/mL (≈ 18.3 µM). For the same compound, the MIC ([3]; 50 min, clinical sample VA_1, 50 minutes incubation, read-out: predicted mode MIC) was 1 µg/mL (≈ 2.61 µM), the MIC ([3]; 50 min, clinical sample VA_2, 50 minutes incubation, read-out: predicted mode MIC) was 1 µg/mL (≈ 2.61 µM) and the predicted susceptibility category ([3]; clinical sample VA_1, 50 minutes incubation) was “susceptible”. The predicted susceptibility category ([3]; clinical sample VA_1, within 20 minutes of meropenem treatment) was “resistant”, the predicted susceptibility category ([3]; clinical sample VA_2, 50 minutes incubation) was “susceptible” and the predicted susceptibility category ([3]; clinical sample VA_2, within 20 minutes of meropenem treatment) was “resistant”.
